For data set [1], the system named is pyruvate, lactate and glucose in plasma. As to the kind of experiment: Plasma metabolomics: pyruvate, lactate, glucose plasma levels. Conditions: 1000 mg cohort, day −1 to day 28. Format: in vivo, human. The method, then:
Blood sampling was performed for analysis on plasma at the exact time-points described in the table below: Blood handling procedures: at each time point indicated in the table, a 6 mL blood sample was drawn into K2-EDTA coated tube. The blood samples were gently inverted a few times for complete mixing with the anticoagulant. The exact time of sample collection was recorded on the eCRF. Within 30 minutes following blood collection, each blood sample was centrifuged at 1500 g for 10 minutes at 4° C. 30 minutes after the centrifugation, the top layer of human plasma was transferred into 2 pre-labelled polypropylene tubes, containing approximately 1500 μL of plasma. Blood cells were not transferred. All sample tubes were clearly and appropriately labelled. Tubes were capped immediately from each time point and the plasma was be frozen in an upright position at approximately −80° C. for storage. Measurement of metabolites: Samples were extracted and split into equal parts for analysis on the LC/MS/MS and Polar LC platforms. Proprietary software was used to match ions to an in-house library of standards for metabolite identification and for metabolite quantitation by peak area integration. A total of 781 metabolites were quantified. Metabolomics is the study of known measurable metabolites in a sample. […]

Data set [2] is described as follows: Steady state plasma levels of total Urolithin A over 4-week dosing. In kind it is in vivo, human. The following applies: Day 31 and Day 32. Here is the method: A double-blind, randomized, placebo controlled clinical trial was conducted in healthy elderly to establish the steady state levels of Urolithin A in plasma. Elderly subjects (61-82 years) (n=9), participated in each group of dosing. The subjects met all the inclusion and exclusion criteria of the study and signed informed consent. The subjects were overnight fasted and the plasma was collected in the morning before breakfast to assess steady state levels. Subjects were given a dose of Urolithin or placebo each morning for the 28 day trial. The urolithin A was given as softgel capsules containing 250 mg of Urolithin A in each capsule. Plasma samples were collected for assessment of Urolithin A steady state concentrations in the 4-week Urolithin A study at the following time points (Day 0, Day 7, Day 14, Day 28, Day 29, Day 31, and Day 32). […] On day 28 the subjects were admitted to a Phase 1 clinical trial unit and the kinetics of Urolithin A absorption, and elimination following multiple 4-week dosing were followed until 96 hours following the last dosing on Day 28. Plasma was collected at the following time-points post last dosing with Urolithin A on Day 28: pre-dose, 1 hr, 2 hr, 4 hr, 6 hr, 8 hr, 12 hr, 24 hr, 72 hr and 96 hr. […] The exact time of sample collection was recorded on the eCRF (electronic case report from). […]

In the case of `O=c1oc2cc(O)ccc2c2ccc(O)cc12` [Urolithin A], the “pyruvate, lactate and glucose levels in plasma” value in data set [1] is given as “no significant change”. Moreover, the “steady state levels after the end of the 4-week UA administration” value in data set [2] is “gradually declined”.
